Patent US20260109690A1, “HDAC6 INHIBITORS AND METHOD OF THEIR USE” (Baerenkraft Therapeutics, LLC., priority 2024, published 2026)

Legend:
[1] = tested on: acetyl-α-tubulin in SH-SY5Y neuroblastoma cells; experiment: Western blot of acetylated alpha-tubulin in SH-SY5Y neuroblastoma cells; format: cell-based; conditions: 1 μM and 10 μM, 24 hours
Protocol: SH-SY5Y neuroblastoma cells were seeded at 1,000,000 cells/well of three 6-well plates and incubated for 24 hours. Cells were treated with 2 control and experimental HDAC6 inhibitors at 1 μM and 10 μM for 24-hours. Following treatment, cells were lysed, and proteins extracted for western blot. Proteins were separated by gel electrophoresis and transferred to nitrocellulose membranes. Membranes were blocked and probed with primary Abs overnight.
acetyl-α-tubulin (Lys40)(D20G3); Cell Signaling Technologies, #5335S
GAPDH; Millipore Sigma, #MAB374
Membranes were probed with secondary Abs for 1 hour and then the blots were imaged using the iBright 1500 (ThermoFisher)

HDAC6 = molecular target: T1, HDAC6 (Homo sapiens, UniProt Q9UBN7); experiment: Biochemical HDAC6 inhibitory activity assay; conditions: read-out: HDAC6 IC50
T1 sequence (Q9UBN7 1-1215): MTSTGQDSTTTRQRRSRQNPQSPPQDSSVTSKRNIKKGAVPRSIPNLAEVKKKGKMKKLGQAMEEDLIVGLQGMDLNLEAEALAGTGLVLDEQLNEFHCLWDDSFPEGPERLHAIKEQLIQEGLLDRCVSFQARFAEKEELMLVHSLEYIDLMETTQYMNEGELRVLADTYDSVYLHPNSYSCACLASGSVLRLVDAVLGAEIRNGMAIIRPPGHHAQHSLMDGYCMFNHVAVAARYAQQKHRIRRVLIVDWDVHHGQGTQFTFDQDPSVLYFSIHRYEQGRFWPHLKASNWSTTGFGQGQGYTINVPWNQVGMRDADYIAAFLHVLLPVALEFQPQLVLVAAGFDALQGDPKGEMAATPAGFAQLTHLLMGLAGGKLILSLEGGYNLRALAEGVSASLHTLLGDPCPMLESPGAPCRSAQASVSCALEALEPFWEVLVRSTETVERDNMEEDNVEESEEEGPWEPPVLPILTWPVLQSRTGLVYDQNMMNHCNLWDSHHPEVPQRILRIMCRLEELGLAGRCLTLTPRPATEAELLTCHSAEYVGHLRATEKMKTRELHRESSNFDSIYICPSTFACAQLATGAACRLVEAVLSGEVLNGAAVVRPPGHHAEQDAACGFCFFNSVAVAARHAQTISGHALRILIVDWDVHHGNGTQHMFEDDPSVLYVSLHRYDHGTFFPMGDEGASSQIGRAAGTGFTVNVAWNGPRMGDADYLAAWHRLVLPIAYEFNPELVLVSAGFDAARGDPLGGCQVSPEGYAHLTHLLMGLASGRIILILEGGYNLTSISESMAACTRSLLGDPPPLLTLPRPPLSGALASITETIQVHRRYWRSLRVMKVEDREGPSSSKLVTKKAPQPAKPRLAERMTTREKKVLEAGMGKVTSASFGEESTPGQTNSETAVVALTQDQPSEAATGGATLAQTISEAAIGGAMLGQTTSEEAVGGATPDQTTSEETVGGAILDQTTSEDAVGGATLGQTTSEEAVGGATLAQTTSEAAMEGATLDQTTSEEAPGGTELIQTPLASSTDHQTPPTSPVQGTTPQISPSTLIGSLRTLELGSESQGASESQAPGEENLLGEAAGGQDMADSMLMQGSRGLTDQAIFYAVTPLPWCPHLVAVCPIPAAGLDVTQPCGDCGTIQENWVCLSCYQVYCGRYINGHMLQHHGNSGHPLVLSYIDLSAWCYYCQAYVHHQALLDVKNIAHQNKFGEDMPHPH

[2] = tested on: acetyl-α-tubulin in SH-SY5Y neuroblastoma cells; experiment: ICC dose response of acetylated alpha-tubulin in SH-SY5Y neuroblastoma cells; format: cell-based; conditions: Homo sapiens, 24 h, read-out: IC50 (acetyl-α-tubulin average fluorescence intensity)
Protocol: Cell Seeding: Seeded at 2,000 cells/well in 384-well plates 24-hours prior to compound treatment
Compound Treatment: 24-hour
HDAC6 inhibitor compounds tested (1 control and 6 experimental)
9-point dose-response curves for all compounds, starting at 30 μM with 3-fold serial dilutions
4 technical replicate wells per condition tested
Cells were seeded in 90 μL media. 10 μL of 10× compound solutions added to 90 μL media for 24-hours
Fixation: 4% PFA for 15 minutes (after removing all media and washing with DPBS+0.1% Tween-20)
Permeabilization: 0.1% Triton X-100 for 20 minutes
Primary antibody: acetyl-α-tubulin (Lys40/D20G3; Cell Signaling Technologies, #5335S) 1:1000 dilution in DPBS+5% goat serum+0.1% Tween-20, 1 hour at room temp on orbital shaker
Secondary antibody: Goat anti-Rabbit IgG (H+L) Highly Cross-Adsorbed Secondary Antibody, Alexa Fluor™ Plus 488, Catalog #A32731, 1:1000 dilution+Hoechst 33342, 1:10,000 dilution in DPBS+5% goat serum+0.1% Tween-20, 1 hour at room temp on orbital shaker
High-content imaging system: Image Xpress Micro Confocal from Molecular Devices […]
Integrated fluorescence intensity of acetyl-α-tubulin was calculated using an automated image-analysis algorithm in Meta Xpress software
Average intensity per cell was calculated by dividing the integrated fluorescence intensity by the number of nuclei. […]

HDAC8 = molecular target: T2, HDAC8 (Homo sapiens, UniProt Q9BY41); experiment: HDAC selectivity panel: HDAC8; format: biochemical
T2 sequence (Q9BY41 1-377): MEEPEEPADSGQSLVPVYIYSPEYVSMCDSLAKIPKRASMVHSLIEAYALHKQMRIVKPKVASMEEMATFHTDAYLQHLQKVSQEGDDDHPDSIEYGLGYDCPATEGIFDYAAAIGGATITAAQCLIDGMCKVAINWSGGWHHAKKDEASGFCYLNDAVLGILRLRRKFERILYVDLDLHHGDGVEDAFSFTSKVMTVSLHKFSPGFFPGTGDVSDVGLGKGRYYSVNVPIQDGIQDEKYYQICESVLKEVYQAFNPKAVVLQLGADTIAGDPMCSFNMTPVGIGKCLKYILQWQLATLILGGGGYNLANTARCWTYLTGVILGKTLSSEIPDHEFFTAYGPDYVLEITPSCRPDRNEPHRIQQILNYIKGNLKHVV

HDAC1 = HDAC1 (Homo sapiens, UniProt Q13547); experiment: HDAC selectivity panel: HDAC1; format: biochemical
HDAC1, sequence (Q13547 whole entry, species assumed): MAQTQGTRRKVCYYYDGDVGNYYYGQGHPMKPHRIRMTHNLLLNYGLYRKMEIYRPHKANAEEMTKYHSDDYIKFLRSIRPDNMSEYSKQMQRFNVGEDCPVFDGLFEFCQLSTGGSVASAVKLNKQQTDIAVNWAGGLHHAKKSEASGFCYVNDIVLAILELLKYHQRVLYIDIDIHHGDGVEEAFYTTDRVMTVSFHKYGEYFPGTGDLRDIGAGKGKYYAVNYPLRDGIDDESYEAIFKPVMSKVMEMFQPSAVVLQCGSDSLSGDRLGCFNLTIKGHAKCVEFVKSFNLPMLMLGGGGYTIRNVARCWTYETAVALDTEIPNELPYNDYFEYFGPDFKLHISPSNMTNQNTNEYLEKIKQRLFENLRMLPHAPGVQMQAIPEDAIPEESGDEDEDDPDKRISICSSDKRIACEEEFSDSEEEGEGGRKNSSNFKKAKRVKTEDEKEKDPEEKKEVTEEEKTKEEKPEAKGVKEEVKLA

HDAC3 = HDAC3 (Homo sapiens, UniProt O15379); experiment: HDAC selectivity panel: HDAC3; format: biochemical
HDAC3, sequence (O15379 whole entry, species assumed): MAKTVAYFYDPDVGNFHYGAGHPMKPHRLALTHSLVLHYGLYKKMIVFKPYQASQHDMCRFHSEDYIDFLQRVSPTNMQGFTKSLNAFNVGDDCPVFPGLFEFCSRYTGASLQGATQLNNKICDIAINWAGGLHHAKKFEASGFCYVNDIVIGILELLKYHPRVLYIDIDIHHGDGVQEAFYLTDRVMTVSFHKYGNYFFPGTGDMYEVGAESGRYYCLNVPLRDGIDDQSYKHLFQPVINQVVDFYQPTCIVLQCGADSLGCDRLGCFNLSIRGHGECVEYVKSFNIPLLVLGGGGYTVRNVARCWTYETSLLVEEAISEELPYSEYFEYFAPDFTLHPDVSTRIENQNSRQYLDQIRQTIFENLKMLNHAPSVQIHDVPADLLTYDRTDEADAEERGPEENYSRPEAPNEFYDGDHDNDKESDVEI
HDAC3, sequence (Q9Y618 395-489 partner limits assumed, species assumed): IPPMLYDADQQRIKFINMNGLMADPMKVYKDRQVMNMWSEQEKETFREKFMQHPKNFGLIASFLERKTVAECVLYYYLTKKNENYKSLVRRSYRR

HDAC10 = molecular target: T3, HDAC10 (Homo sapiens, UniProt Q969S8); experiment: HDAC selectivity panel: HDAC10; format: biochemical
T3 sequence (Q969S8 1-669): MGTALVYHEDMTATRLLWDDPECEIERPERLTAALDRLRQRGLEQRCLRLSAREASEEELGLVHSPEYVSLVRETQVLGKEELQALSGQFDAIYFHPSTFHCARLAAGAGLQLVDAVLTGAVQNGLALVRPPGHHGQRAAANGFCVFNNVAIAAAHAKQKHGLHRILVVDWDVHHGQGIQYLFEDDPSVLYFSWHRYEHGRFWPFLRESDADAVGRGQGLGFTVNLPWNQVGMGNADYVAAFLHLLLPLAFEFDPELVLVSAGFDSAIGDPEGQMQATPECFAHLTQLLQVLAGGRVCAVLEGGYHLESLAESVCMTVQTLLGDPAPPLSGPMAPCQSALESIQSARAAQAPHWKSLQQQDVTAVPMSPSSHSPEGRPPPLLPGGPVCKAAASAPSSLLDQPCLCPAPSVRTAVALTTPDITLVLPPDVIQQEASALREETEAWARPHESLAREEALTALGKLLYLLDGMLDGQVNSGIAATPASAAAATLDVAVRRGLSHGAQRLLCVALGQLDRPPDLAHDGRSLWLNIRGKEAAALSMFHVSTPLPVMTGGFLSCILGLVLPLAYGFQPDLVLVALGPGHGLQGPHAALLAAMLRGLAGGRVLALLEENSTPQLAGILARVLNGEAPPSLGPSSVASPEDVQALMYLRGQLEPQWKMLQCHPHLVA

HDAC11 = molecular target: T4, HDAC11 (Homo sapiens, UniProt Q96DB2); experiment: HDAC selectivity panel: HDAC11; format: biochemical
T4 sequence (Q96DB2 1-347): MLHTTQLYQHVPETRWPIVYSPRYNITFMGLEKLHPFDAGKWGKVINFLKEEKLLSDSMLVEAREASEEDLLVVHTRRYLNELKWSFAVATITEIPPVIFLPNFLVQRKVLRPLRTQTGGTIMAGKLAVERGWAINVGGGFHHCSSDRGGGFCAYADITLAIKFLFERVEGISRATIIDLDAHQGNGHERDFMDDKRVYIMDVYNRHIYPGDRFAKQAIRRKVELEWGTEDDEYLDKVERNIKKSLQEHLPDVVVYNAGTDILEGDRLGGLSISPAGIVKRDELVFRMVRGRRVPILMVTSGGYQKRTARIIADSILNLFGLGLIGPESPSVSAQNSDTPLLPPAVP

Q: O=C(NO)c1ccc(-c2ccnc(N3CCC4(CC3)COC4)n2)cc1 [Compound I-25, 4-(2-(2-oxa-7-azaspiro[3.5]nonan-7-yl)pyrimidin-4-yl)-N-hydroxybenzamide] was tested. Which “acetylation of α-tubulin (Western blot)” value [1] did it give?
A: The value was “induce acetylation of α-tubulin in SH-SY5Y neuroblastoma cells in a dose-dependent manner”.

Q: And the IC50 (HDAC6)?
A: Its IC50 is under 1000 nM.

Q: How did the IC50 [2] turn out when O=C(CCCCCCNC(=O)c1cnc(N(c2ccccc2)c2ccccc2)nc1)NO [ACY-1215, ricolinostat, reference compound] was run?
A: Its IC50 is 1780 nM.

Q: With CC1CN(C(=O)c2ccc(Nc3nccc(-c4ccc(C(=O)NO)cc4)n3)cc2F)CCO1 (stereo not shown) [Compound I-5, 4-(2-((3-fluoro-4-(2-methylmorpholine-4-carbonyl)phenyl)amino)pyrimidin-4-yl)-N-hydroxybenzamide] as the compound, how does the IC50 (HDAC8) read?
A: Its IC50 is 162 nM.

Q: What about the IC50 (HDAC1) of the same compound?
A: The IC50 was 1640 nM.

Q: What about the IC50 (HDAC6) of the same compound?
A: Its IC50 is under 1000 nM.

Q: And the IC50 (HDAC3)?
A: Its IC50 is 1360 nM.

Q: And the IC50 (HDAC10)?
A: Its IC50 is 73.7 nM.

Q: What about the IC50 (HDAC11) of the same compound?
A: The IC50 was 782 nM.

Q: CN1CCN(Cc2ccc(Nc3nccc(-c4ccc(C(=O)NO)cc4)n3)cc2F)CC1 [Compound I-7, 4-(2-((3-fluoro-4-((4-methylpiperazin-1-yl)methyl)phenyl)amino)pyrimidin-4-yl)-N-hydroxybenzamide] was tested. Which “acetylation of α-tubulin (Western blot)” value [1] did it give?
A: Its value is “induce acetylation of α-tubulin in SH-SY5Y neuroblastoma cells in a dose-dependent manner”.

Q: What about the IC50 (HDAC6) of the same compound?
A: Its IC50 is under 1000 nM.

Q: O=C(NO)c1ccc(-c2ccnc(N3CCC(F)(F)CC3)n2)cc1 [Compound I-27, 4-(2-(4,4-difluoropiperidin-1-yl)pyrimidin-4-yl)-N-hydroxybenzamide] was tested. Which “acetylation of α-tubulin (Western blot)” value [1] did it give?
A: The value was “induce acetylation of α-tubulin in SH-SY5Y neuroblastoma cells in a dose-dependent manner”.

Q: What about the IC50 (HDAC6) of the same compound?
A: The IC50 was under 1000 nM.

Q: Which “acetylation of α-tubulin (Western blot)” value [1] does the source give for O=C1NCC2(CCN(c3nccc(-c4ccc(C(=O)NO)cc4)n3)CC2)O1 [Compound I-26, N-hydroxy-4-(2-(2-oxo-1-oxa-3,8-diazaspiro[4.5]decan-8-yl)pyrimidin-4-yl)benzamide] here?
A: Its value is “induce acetylation of α-tubulin in SH-SY5Y neuroblastoma cells in a dose-dependent manner”.

Q: What about the IC50 (HDAC6) of the same compound?
A: The IC50 was under 1000 nM.

Q: For O=C(NO)c1ccc(-c2nc(Nc3ccc(C(=O)N4CCOCC4)c(F)c3)ncc2Cl)cc1 [Compound I-17, 4-(5-chloro-2-((3-fluoro-4-(morpholine-4-carbonyl)phenyl)amino)pyrimidin-4-yl)-N-hydroxybenzamide], which IC50 (HDAC6) is on record?
A: The IC50 was under 1000 nM.

Q: O=C(NO)c1ccc(-c2ccnc(Nc3ccc(CN4CCN(C5COC5)CC4)c(F)c3)n2)cc1 [Compound I-9, 4-(2-((3-fluoro-4-((4-(oxetan-3-yl)piperazin-1-yl)methyl)phenyl)amino)pyrimidin-4-yl)-N-hydroxybenzamide] was tested. Which “acetylation of α-tubulin (Western blot)” value [1] did it give?
A: The value was “induce acetylation of α-tubulin in SH-SY5Y neuroblastoma cells in a dose-dependent manner”.

Q: What about the IC50 (HDAC6) of the same compound?
A: Its IC50 is under 1000 nM.

Q: For Cn1cc(CNCC2CCN(c3ncc(C(=O)NO)cn3)CC2)c2ccccc21 [Quisinostat, reference compound], which IC50 (HDAC10) is on record?
A: The IC50 was 8.37 nM.

Q: CCNNC(=O)c1ccc(-c2ccnc(N3CCC4(CC3)COC4)n2)cc1 [Compound I-23, 4-(2-(2-oxa-7-azaspiro[3.5]nonan-7-yl)pyrimidin-4-yl)-N′-ethylbenzohydrazide] was tested. Which IC50 (HDAC6) did it give?
A: The IC50 was under 1000 nM.

Q: How did the IC50 (HDAC6) turn out when CC1CN(C(C)c2ccc(Nc3nccc(-c4ccc(C(=O)NO)cc4)n3)cc2F)CCO1 (stereo not shown) [Compound I-13, 4-(2-((3-fluoro-4-(1-(2-methylmorpholino)ethyl)phenyl)amino)pyrimidin-4-yl)-N-hydroxybenzamide] was run?
A: Its IC50 is under 1000 nM.

Q: How did the IC50 (HDAC6) turn out when C[C@H]1CN(Cc2ccc(Nc3nccc(-c4ccc(-c5nnc(C(F)F)o5)cc4F)n3)cc2F)CCO1 [Compound I-31, (S)-4-(4-(5-(difluoromethyl)-1,3,4-oxadiazol-2-yl)-2-fluorophenyl)-N-(3-fluoro-4-((2-methylmorpholino)methyl)phenyl)pyrimidin-2-amine] was run?
A: The IC50 was under 1000 nM.
